Read-outs that look alike come from different tables or passages of the source.
Assays:
Type in all cases: physicochemical
[1] = Preparation and stabilization of colloidal compositions of calcium fluoride; conditions: alone or in combination with TRIMEA; precipitation from calcium chloride and sodium fluoride
[2] = Solubility of TRIMEA and DIMEB and complex formation between the two hosts in absence of a guest
Method: TRIMEA and DIMEB dissolve in water more than 33 g per 100 ml of water. The solubilities of both these compounds in water can be decreased by the addition of salts or by an increase of temperature. Thus, in aqueous solution of sodium sulfate (1 M), TRIMEA dissolved to the saturation concentration just of 0.4 mg/ml and DIMEB to 3.4 mg/ml. […] If a 1:1 complex between TRIMEA and DIMEB is assumed to form, the association constant of 700 [1/M] can be estimated for that complex, which is of the same order of magnitude as association constants of many complexes formed of guests and cyclodextrins.

insulin = insulin (Homo sapiens, UniProt P01308); assay: Stabilization and solubilization of insulin by highly methylated cyclodextrins; conditions: cyclodextrins at 2 or 4% in phosphate buffered solution, insulin 1 mg/ml, final pH less than 6
Chain of insulin (P01308 25-54 limits assumed, species assumed): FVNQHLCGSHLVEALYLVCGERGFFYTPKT
Chain of insulin (P01308 90-110 limits assumed, species assumed): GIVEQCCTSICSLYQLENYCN

## COC[C@H]1O[C@@H]2O[C@H]3[C@H](O)[C@@H](OC)[C@@H](O[C@H]4[C@H](O)[C@@H](OC)[C@@H](O[C@H]5[C@H](O)[C@@H](OC)[C@@H](O[C@H]6[C@H](O)[C@@H](OC)[C@@H](O[C@H]7[C@H](O)[C@@H](OC)[C@@H](O[C@H]8[C@H](O)[C@@H](OC)[C@@H](O[C@H]1[C@H](O)[C@H]2OC)O[C@@H]8COC)O[C@@H]7COC)O[C@@H]6COC)O[C@@H]5COC)O[C@@H]4COC)O[C@@H]3COC [DIMEB]
[1]
  preparation and stabilization of colloidal compositions of calcium fluoride: effective
[2]; aqueous solution of sodium sulfate (1 M)
  saturation concentration: 3.4 mg/mL

## COC[C@H]1O[C@@H]2O[C@@H]3[C@@H](OC)[C@@H](OC)[C@@H](O[C@@H]4[C@@H](OC)[C@@H](OC)[C@@H](O[C@@H]5[C@@H](OC)[C@@H](OC)[C@@H](O[C@@H]6[C@@H](OC)[C@@H](OC)[C@@H](O[C@@H]7[C@@H](OC)[C@@H](OC)[C@@H](O[C@@H]1[C@@H](OC)[C@H]2OC)O[C@@H]7COC)O[C@@H]6COC)O[C@@H]5COC)O[C@@H]4COC)O[C@@H]3COC [TRIMEA]
insulin
  stabilizer of the dissolved insulin: more effective stabilizer of the dissolved insulin than DIMEB or TRIMEB
[2]
  saturation concentration: 0.4 mg/mL
